For three molecules, IC50 and AC50 results are on record in ChEMBL document CHEMBL1201862, “PubChem BioAssay data set” (2004).

The source made the active and inactive calls.

The target in assay [1] is T1, Sentrin-specific protease 8 (Homo sapiens, UniProt Q96LD8).
T1 sequence (Q96LD8 whole entry): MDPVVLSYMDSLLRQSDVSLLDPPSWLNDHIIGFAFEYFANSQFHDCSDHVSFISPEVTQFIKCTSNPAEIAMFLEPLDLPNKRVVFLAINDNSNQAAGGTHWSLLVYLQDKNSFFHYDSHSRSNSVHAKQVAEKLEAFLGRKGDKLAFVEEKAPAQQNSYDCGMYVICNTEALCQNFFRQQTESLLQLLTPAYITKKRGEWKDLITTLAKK
Format: functional.

A further assay addresses Beta Lactamase (Pseudomonas aeruginosa, UniProt Q932Y6). As to the kind of experiment: beta-lactamase reporter inhibitor potency, dose response, artefact control for TLR9-MyD88 binding inhibitor project, BLA reporter cells, FRET fluorescence (AID 588341).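 Also: cell based assay in CHO-K1 cells stably expressing beta-lactamase.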 Format: cell-based.
The target of assay [2] is T1, Sentrin-specific protease 8. The format is functional. This is another data set of the same source.
A further assay concerns CHO. Briefly: cytotoxicity in TLR9-MyD88 CHO cells, dose response, cytotoxicity control for TLR9-MyD88 binding inhibitor project, cell-based, luminescence (AID 588339).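 Also: CHO cells stably coexpressing TLR9 and MyD88 fusions from primary screen; compound exposure lasted 48 hours before viability readout.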 Format: functional, hamster. The settings on record: Cricetulus griseus.
The next assay concerns the target T2, CAAX prenyl protease 2 (Saccharomyces cerevisiae S288c, UniProt Q03530).
T2 sequence (Q03530 whole entry): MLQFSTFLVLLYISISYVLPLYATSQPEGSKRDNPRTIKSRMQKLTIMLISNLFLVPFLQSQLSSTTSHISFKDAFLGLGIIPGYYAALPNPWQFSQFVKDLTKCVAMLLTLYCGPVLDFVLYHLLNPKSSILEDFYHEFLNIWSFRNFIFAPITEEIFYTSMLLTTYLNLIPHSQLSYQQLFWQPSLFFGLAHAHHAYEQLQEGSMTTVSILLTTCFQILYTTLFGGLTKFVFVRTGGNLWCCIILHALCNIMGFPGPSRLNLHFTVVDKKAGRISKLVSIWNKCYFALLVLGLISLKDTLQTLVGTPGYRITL
As to the kind of experiment: yeast Rce1 CaaX protease inhibitors, dose response, biochemical, plate reader, dry powder retest (AID 588851).

For the next assay, the target named is T3, Caspase-3 (Homo sapiens, UniProt P42574).
T3 sequence (P42574 whole entry): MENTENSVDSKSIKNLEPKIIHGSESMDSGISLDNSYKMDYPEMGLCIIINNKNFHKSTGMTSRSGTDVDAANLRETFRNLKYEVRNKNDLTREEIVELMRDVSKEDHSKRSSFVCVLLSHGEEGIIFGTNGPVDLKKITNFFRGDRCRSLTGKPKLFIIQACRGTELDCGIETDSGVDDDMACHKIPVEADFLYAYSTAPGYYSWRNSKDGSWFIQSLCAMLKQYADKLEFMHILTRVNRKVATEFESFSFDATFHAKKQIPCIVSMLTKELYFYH
As to the kind of experiment: caspase-3 inhibitors as off-family protease, SAR follow-up, selectivity assay for SENP protease inhibitor project, biochemical, luminescence, set 2 (AID 588599). The format is functional.

In assay [3] the target is T1, Sentrin-specific protease 8. As to the kind of experiment: SENP8 protease inhibitors, SAR follow-up, biochemical, luminescence, set 2 (AID 588601). The format is functional.
Assay [4] concerns the target T4, Sentrin-specific protease 7 (Homo sapiens, UniProt Q9BQF6).
T4 sequence (Q9BQF6 whole entry): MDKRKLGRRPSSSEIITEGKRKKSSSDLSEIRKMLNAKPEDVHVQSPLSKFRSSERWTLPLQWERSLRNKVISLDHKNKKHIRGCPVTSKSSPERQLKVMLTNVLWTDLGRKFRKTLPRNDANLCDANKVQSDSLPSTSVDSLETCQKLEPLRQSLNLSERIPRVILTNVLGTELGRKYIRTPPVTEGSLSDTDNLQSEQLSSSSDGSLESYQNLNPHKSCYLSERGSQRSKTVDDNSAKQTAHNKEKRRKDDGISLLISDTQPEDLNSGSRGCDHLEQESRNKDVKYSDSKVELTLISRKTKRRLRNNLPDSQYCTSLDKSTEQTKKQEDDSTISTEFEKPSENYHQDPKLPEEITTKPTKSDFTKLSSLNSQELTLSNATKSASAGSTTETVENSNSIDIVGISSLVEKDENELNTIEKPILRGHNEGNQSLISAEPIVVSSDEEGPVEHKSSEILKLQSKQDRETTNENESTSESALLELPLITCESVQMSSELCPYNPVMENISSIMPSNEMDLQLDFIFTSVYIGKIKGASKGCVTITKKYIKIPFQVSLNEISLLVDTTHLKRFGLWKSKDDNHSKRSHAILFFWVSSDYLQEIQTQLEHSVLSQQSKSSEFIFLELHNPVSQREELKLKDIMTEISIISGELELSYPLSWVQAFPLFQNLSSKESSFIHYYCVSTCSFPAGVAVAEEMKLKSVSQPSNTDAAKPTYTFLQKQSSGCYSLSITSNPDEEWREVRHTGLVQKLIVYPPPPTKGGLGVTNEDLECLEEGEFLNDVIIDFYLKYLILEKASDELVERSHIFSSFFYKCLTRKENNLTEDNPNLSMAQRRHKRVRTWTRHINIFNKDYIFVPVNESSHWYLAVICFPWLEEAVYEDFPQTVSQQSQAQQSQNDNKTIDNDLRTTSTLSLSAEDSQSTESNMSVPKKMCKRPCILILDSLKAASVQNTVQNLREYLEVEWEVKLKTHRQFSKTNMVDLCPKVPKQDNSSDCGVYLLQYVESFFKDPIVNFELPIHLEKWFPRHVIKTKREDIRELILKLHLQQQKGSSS
As to the kind of experiment: SENP7 protease inhibitors, SAR follow-up, biochemical, luminescence, set 2 (AID 588600). Format: functional.

For assay [5], the target named is T5, Sentrin-specific protease 6 (Homo sapiens, UniProt Q9GZR1).
T5 sequence (Q9GZR1 whole entry): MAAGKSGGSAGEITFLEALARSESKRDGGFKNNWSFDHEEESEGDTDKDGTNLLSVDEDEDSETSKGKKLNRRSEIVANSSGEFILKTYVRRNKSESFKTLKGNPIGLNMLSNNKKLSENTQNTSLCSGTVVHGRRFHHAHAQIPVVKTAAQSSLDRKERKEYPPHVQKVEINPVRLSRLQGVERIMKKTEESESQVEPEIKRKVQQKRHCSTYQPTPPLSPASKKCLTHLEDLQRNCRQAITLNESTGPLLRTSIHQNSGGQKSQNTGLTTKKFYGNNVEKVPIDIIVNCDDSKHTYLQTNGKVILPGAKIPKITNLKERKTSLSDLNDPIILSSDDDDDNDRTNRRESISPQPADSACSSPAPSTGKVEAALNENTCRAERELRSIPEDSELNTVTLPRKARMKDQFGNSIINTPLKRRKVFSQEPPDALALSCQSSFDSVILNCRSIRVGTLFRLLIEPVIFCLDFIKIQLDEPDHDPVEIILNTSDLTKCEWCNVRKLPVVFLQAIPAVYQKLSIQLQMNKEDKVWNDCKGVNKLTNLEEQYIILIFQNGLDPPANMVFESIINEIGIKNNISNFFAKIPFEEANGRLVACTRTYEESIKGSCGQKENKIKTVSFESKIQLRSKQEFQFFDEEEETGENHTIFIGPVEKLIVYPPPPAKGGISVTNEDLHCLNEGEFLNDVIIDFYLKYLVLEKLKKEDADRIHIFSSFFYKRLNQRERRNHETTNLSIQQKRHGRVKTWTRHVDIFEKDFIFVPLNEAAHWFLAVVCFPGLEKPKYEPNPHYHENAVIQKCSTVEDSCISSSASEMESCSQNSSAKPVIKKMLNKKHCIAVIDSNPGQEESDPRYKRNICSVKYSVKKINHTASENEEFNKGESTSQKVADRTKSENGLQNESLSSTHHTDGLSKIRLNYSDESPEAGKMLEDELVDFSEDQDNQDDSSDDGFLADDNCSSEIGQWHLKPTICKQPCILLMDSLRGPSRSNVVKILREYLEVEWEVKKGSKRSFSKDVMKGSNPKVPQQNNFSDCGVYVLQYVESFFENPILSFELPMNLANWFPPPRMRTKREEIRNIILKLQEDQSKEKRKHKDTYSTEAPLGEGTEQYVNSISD
As to the kind of experiment: SENP6 protease inhibitors, SAR follow-up, biochemical, luminescence, set 2 (AID 588598). The format is functional.

Beta Lactamase, sequence (Q932Y6 whole entry): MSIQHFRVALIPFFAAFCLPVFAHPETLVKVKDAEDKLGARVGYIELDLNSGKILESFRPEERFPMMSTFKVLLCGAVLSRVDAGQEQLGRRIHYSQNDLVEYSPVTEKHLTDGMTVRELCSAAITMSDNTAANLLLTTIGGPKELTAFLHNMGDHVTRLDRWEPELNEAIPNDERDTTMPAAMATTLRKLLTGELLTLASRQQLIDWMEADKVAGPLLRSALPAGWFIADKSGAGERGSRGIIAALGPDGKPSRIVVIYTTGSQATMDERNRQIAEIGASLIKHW

For the molecule `Cc1ccc(N2C(=O)Cc3ccccc3C2=O)cc1`, the IC50 in [1] was 3.36 µM (active); on Beta Lactamase, 4.59 µM (active); in assay [2], > 100 µM (inactive); in the assay on CHO, > 49.8 µM (inactive).
As for `CCCOc1ccc(-c2c(C(=O)N/N=C/c3cccs3)nnn2-c2nonc2N)cc1`, the AC50 at CAAX prenyl protease 2 was 54.9 µM (active).
Consider `CC(C)(C)C(=O)N1CCC(C(=O)Nc2nc3c(F)cc(F)cc3s2)CC1`, for which the IC50 (on Caspase-3; in assay [3]; in [4]; in assay [5]) was > 99 µM (inactive) throughout.

In general, IC50 refers to the concentration that inhibits the measured activity by half. Usually AC50 stands for the midpoint of the concentration-response curve, whichever way the signal moves.
